Test results: US20080070980A1, “Use Of Beta-Cryptoxanthin” (priority 2004, published 2008)

How the values were obtained:
[1] = test system: genes involved in protein synthesis; test: six weeks feeding study in SKH-1 mice, gene expression by GeneChip DNA microarray in kidney, liver, skin and spleen; type: in vivo; conditions: 1200 ppm in feed with sodium cholate
Procedure: In a six weeks study, β-cryptoxanthin beadlets were mixed into the diet of SKH-1 mice to provide 1200 ppm β-cryptoxanthin in the feed. Further, 0.125 g of sodium cholate per 100 g of feed was added to facilitate the uptake of β-cryptoxanthin. The average β-cryptoxanthin intake was 6.5 mg pro mouse and pro day. After six weeks, the effect of this dose on the overall gene expression was studied. β-cryptoxanthin-mediated gene expression modifications were assessed by GeneChip® DNA microarray technology. Total RNA was extracted from kidney, liver, skin and spleen using the TRIzol® method according to the manufacturer protocol. Reverse Transcription was performed with 10 μg total RNA followed by second strand synthesis of cDNA. The cDNA was then transcribed into multiple cRNA copies and labelled by biotin-coupled nucleotides and fragmented. 10 μg of labelled and fragmented cRNA were hybridized on Affymetrix Mice Genome 430A microarrays as described in the GeneChip® Expression Analysis Technical Manual (Affymetrix, Oxford, UK). For each β-cryptoxanthin-treated tissue, five replicates were performed and compared to six replicates of untreated control mice. […] Subsequently, the microarrays were subjected to laser scanning and the hybridization signals were analyzed with Genedata Expressionist® and Phylosopher® software packages (Genedata, Basel, Switzerland). […]

[2] = test system: mouse myoblast cell line C2C12; test: protein formation in C2C12 muscle cell cultures (BCA protein assay, Pico-green DNA assay); type: cell-based
Procedure: β-Cyptoxanthin enhances protein formation in muscle cell cultures
C2C12 cells from American Type Culture Collection (ATCC, CRL-1772).
The mouse myoblast cell line C2C12 was seeded into 6 cm^2 cell culture dishes at a density 2×10^5 cells/per well. Cells were cultivated in the presence of Dulbecco's […] (DMEM) containing a final concentration of 10% fetal calf serum, 4500 mg/L glucose, 100 IU/ml Penicillin & 100 μg/ml Streptomycin 2 mM L-Glutamine and 1 mM sodium pyruvate. One day post seeding, cells were supplemented with fresh medium containing β-cryptoxanthin with a final concentration of 0.25 μM or 1 μM or vehicle (tetrahydrofurane). β-cryptoxanthin stock solution was prepared in tetrahydrofurane and the solvent concentration in the media was kept constant at 0.14% for all treatment conditions. Cultivation in medium containing β-cryptoxanthin followed up for a total of 7 consecutive days. The medium was changed every second day. On each day, cells from one well per treatment group were scraped into 0.4 ml of a lysis buffer consisting of 20 mM Tris pH 7.5, NaCl 150 mM, EDTA 1 mM, Nonidet 1%, proteinase inhibitors (Roche Molecular Systems, Mannheim Germany) and sonicated.
Aliquots of 10 μl of this solution were used for total protein, and 2 μl for total DNA analysis. After centrifugation for 5 min at 10000 g, supernatants were used for protein and DNA analysis in the soluble fraction.
Protein was determined using the BCA Protein Assay Reagent (Pierce, Rockford, USA). The Pico-green Assay (Molecular Probes, Leiden, The Netherlands) was used for analysis of DNA content.
The amount of protein was calculated as μg/well or in relation to the amount of cells present in the well, as indirectly determined by the amount of DNA/well.

[3] = 0.25 μM, 1 day in culture, C2C12
[4] = 0.25 μM, 2 days in culture, C2C12
[5] = 0.25 μM, 3 days in culture, C2C12
[6] = 0.25 μM, 4 days in culture, C2C12
[7] = 0.25 μM, 5 days in culture, C2C12
[8] = 0.25 μM, 6 days in culture, C2C12
[9] = 0.25 μM, 7 days in culture, C2C12

CC1=C(/C=C/C(C)=C/C=C/C(C)=C/C=C/C=C(C)/C=C/C=C(C)/C=C/C2=C(C)C[C@@H](O)CC2(C)C)C(C)(C)CCC1 [β-cryptoxanthin]
expression of genes involved in protein synthesis in skin, liver, kidney and spleen [1]: up-regulated | soluble protein μg/well [2, 3]: 536 μg/well | total protein μg/well [2, 3]: 703.6 μg/well | μg soluble protein/μg DNA [2, 3]: 227 μg soluble protein/μg DNA | soluble protein μg/well [2, 4]: 592 μg/well | total protein μg/well [2, 4]: 753.6 μg/well | μg soluble protein/μg DNA [2, 4]: 244 μg soluble protein/μg DNA | soluble protein μg/well [2, 5]: 626 μg/well | total protein μg/well [2, 5]: 771.2 μg/well | μg soluble protein/μg DNA [2, 5]: 274 μg soluble protein/μg DNA | soluble protein μg/well [2, 6]: 915 μg/well | total protein μg/well [2, 6]: 1136 μg/well | μg soluble protein/μg DNA [2, 6]: 406 μg soluble protein/μg DNA | soluble protein μg/well [2, 7]: 1091 μg/well | total protein μg/well [2, 7]: 1314.4 μg/well | μg soluble protein/μg DNA [2, 7]: 505 μg soluble protein/μg DNA | soluble protein μg/well [2, 8]: 1267 μg/well | total protein μg/well [2, 8]: 1411.2 μg/well | μg soluble protein/μg DNA [2, 8]: 713 μg soluble protein/μg DNA | soluble protein μg/well [2, 9]: 1284 μg/well | total protein μg/well [2, 9]: 1257.2 μg/well | μg soluble protein/μg DNA [2, 9]: 693 μg soluble protein/μg DNA | change in soluble protein ([2]; 0.25 μM, C2C12 (Table 3)): an increase in soluble protein | change in specific amount of protein/μg DNA ([2]; 0.25 μM, C2C12 (Table 4)): an increase in the specific amount of protein/μg DNA | increase in total protein ([2]; 0.25 μM, C2C12, versus vehicle (Table 2)): approx. 1.4 fold | soluble protein μg/well ([2]; 1 μM, 1 day in culture, C2C12): 574 μg/well | total protein μg/well ([2]; 1 μM, 1 day in culture, C2C12): 750 μg/well | μg soluble protein/μg DNA ([2]; 1 μM, 1 day in culture, C2C12): 246 μg soluble protein/μg DNA | soluble protein μg/well ([2]; 1 μM, 2 days in culture, C2C12): 547 μg/well | total protein μg/well ([2]; 1 μM, 2 days in culture, C2C12): 757.2 μg/well | μg soluble protein/μg DNA ([2]; 1 μM, 2 days in culture, C2C12): 231 μg soluble protein/μg DNA | soluble protein μg/well ([2]; 1 μM, 3 days in culture, C2C12): 609 μg/well | total protein μg/well ([2]; 1 μM, 3 days in culture, C2C12): 750 μg/well | μg soluble protein/μg DNA ([2]; 1 μM, 3 days in culture, C2C12): 265 μg soluble protein/μg DNA | soluble protein μg/well ([2]; 1 μM, 4 days in culture, C2C12): 857 μg/well | μg soluble protein/μg DNA ([2]; 1 μM, 4 days in culture, C2C12): 382 μg soluble protein/μg DNA | soluble protein μg/well ([2]; 1 μM, 5 days in culture, C2C12): 1126 μg/well | total protein μg/well ([2]; 1 μM, 5 days in culture, C2C12): 1236 μg/well | μg soluble protein/μg DNA ([2]; 1 μM, 5 days in culture, C2C12): 539 μg soluble protein/μg DNA | soluble protein μg/well ([2]; 1 μM, 6 days in culture, C2C12): 1146 μg/well | total protein μg/well ([2]; 1 μM, 6 days in culture, C2C12): 1232.4 μg/well | μg soluble protein/μg DNA ([2]; 1 μM, 6 days in culture, C2C12): 624 μg soluble protein/μg DNA | soluble protein μg/well ([2]; 1 μM, 7 days in culture, C2C12): 1118 μg/well | total protein μg/well ([2]; 1 μM, 7 days in culture, C2C12): 1193.2 μg/well | μg soluble protein/μg DNA ([2]; 1 μM, 7 days in culture, C2C12): 644 μg soluble protein/μg DNA | effect on protein formation at higher concentration ([2]; 1 μM, C2C12): plateaued
